# Results as given in patent US9163020B2, “Azaindole compounds, synthesis thereof, and methods of using the same” (Global Alliance for TB Drug Development, priority 2013, dated 2015).
# Assays:
# in vitro = in vitro ADME; settings: pH 7.4; mouse microsomes; read-out: Mo micrsomal Clint
# Protocol: 1 μM compound was incubated with 1 mg/mL of microsomes (Pooled HLM/MLM with 20 mg/ml protein cone.) at 37° C. in 166 μL of buffer (100 mM phosphate buffer, pH-7.4) containing 2 mM NADPH solution. 20 μL of incubation mix was quenched with 4 volumes chilled acetonitrile at different time points i.e. 0, 2, 5, 10, 20 and 30 min in a fresh 96 well plate. The quench plate was centrifuged at 4000 rpm for 15 min. 30 μL of supernatant was diluted to 300 μL with 50% acetonitrile in water and substrate depletion was analyzed using LC-MS/MS.
# in vivo [1] = settings: BALB/c, mouse, po
# hERG = hERG (Homo sapiens, UniProt Q12809)
# Chain of hERG (Q12809 whole entry): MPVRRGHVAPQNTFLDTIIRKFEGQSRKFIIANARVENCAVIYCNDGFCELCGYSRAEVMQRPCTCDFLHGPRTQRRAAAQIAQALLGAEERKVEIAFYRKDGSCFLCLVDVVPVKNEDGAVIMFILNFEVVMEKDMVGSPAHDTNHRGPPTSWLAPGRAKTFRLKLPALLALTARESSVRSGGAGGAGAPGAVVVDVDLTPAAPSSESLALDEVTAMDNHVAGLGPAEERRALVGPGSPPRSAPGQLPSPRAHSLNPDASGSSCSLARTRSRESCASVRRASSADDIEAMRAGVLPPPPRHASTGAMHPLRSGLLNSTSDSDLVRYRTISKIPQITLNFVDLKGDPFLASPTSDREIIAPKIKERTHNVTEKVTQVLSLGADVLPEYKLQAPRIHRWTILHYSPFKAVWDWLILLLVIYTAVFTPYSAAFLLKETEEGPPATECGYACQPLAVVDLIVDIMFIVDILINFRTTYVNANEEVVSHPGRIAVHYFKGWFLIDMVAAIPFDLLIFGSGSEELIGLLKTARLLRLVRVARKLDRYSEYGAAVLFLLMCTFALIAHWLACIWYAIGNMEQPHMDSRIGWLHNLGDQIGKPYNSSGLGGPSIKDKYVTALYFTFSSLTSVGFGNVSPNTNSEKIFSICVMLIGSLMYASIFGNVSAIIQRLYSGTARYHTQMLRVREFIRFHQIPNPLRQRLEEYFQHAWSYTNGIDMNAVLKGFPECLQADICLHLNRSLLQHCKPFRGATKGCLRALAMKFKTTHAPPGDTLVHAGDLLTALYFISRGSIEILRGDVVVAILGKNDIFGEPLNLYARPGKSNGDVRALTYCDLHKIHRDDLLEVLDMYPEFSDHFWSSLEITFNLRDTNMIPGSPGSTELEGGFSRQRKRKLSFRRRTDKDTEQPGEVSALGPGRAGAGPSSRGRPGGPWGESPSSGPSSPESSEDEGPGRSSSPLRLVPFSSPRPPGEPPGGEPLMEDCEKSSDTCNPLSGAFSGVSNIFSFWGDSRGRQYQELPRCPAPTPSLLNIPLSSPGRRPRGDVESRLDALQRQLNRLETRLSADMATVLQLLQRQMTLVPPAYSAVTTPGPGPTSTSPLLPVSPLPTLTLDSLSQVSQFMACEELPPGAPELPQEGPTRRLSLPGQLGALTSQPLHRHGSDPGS
# Protocol: Compounds were tested on voltage-gated ion channels using the medium-throughput electrophysiology IonWorks™ device. […] For carrying out the experiment, a boat in the “Cells” position of the IonWorks™ instrument was loaded with the cell suspension, and a 96-well PBS destination plate was placed in the “Plate 1” position. A 384-well PatchPlate™ was placed in the IonWorks™ plenum and held in position using the plenum clamp. From this point the experiment progress is automated and ultimately reports a non-cumulative concentration-effect curve for test compound.
# [2] = system: Mycobacterium tuberculosis (Mtb) H37Rv; assay: Mtb minimal bactericidal concentration (MBC), plating from MIC plates; format: cell-based; settings: Table 4, read-out: Mtb MBC
# Protocol: Aliquots from sample wells (MIC and higher) from the MIC plates were diluted 1:10 and plated on 7H10 agar plates. Plates were incubated at 37° C. for 3-4 weeks, CFU was enumerated.
# physchem = format: physicochemical; settings: 25 °C, pH 7.4, aqueous buffer, thermodynamic from solid
# Protocol: Solubility of the compounds in 0.1M phosphate buffer, pH 7.4 was determined as described, Glyburide was used as QC standard in the assay. Briefly, compounds were diluted in ACN/water (40:60) to desired concentration, samples were dried using Genevac for 4 hrs and subsequently 800 μl of buffer was added. Compound containing plates were stirred for 24 hrs at 25° C. on Eppendorf Thermomix R at 750 rpm. Finally, compound concentration was estimated using UV and MS analysis.
# in vivo [3] = settings: Wistar, rat, in vivo
# Protocol: PK of azaindoles compounds was performed in mice (healthy and infected) and rats. Mice were pretreated with 100 mg/kg ABT two hours prior to the compound administration. PK data from healthy mice was used to design the dosing regimen for the efficacy study while, information from infected mice was used for the PK-PD analysis.
# All oral administration was performed as suspensions in 0.5% HPMC, and 0.1% Tween 80. […] All blood samples were collected via sapheneous vein into Microvette CB300® (Starstedt, Germany) tubes coated with Lithium-Heparin, and plasma was prepared from the collected blood by centrifugation.
# One mg/mL stock solution of each compound was prepared in Dimethylsulfoxide (DMSO) and diluted two-fold with acetonitrile. A sixteen point calibration curve was utilized for each analyte, and the standard curves ranged from 0.001 to 40 μg/mL. Plasma/BAL samples were precipitated by adding chilled acetonitrile (1:10 v/v) containing carbamazepine as internal standard (250 ng/mL). Samples were vortexed, and centrifuged at 4000 rpm for 30 min at 10° C. The resulting supernatant was mixed with mobile phase (50% acetonitrile in water with 0.1% formic acid). […] of sample was injected on to a liquid chromatographic system (Waters-ACQUTY UPLC) coupled to triple quadrupole mass spectrometer (Waters-ACQUTY-TQD; MS/MS). Samples were acquired in positive ion mode and detected by multiple reaction monitoring (MRM). Concentrations of the analyte were determined from a standard curve obtained by plotting known concentrations of the analyte against peak area ratios (analyte/internal standard peak response).
# PK analysis of the plasma concentration-time relationships were performed with WinNonlin Phoenix Software (version 6.2; Pharsight, USA). […] The maximum concentration of drug in plasma (Cmax), time to Cmax (Tmax), elimination half-life (t1/2), and AUC from time zero to infinity (AUC0-∞) were estimated. […] Minimum of three sample points in the terminal slope were used to estimate to calculate half-life.
# [4] = pH 7.4
# Protocol: Octanol-water partition coefficient (Log D) based on the shake-flask principle has been measured as follows. The aqueous solution used was 10 mM sodium phosphate buffer pH 7.4. 20 μL of 10 mM compound dissolved in DMSO was taken in glass vial plate. DMSO was removed using GeneVac. 435 μL of octanol was added using Tomtec, stirred for 5 min to dissolve. Further mixing was done by inversion for 5 h at 25° C., subsequently centrifuged for 30 min at 3000 RPM. LC/UV/APPI/MS quantitation of both aqueous and octanol layers was carried out. Log D value was determined according to the following equation.
smiles,measurement,setting,value
"COc1ncnc(Cn2cc(C(=O)NCCF)c3ncccc32)c1C [Compound 3, N-(2-fluoroethyl)-1-((6-methoxy-5-methylpyrimidin-4-yl)methyl)-1H-pyrrolo[3,2-b]pyridine-3-carboxamide]",microsomal CLint,in vitro,104 µL/min/mg
same,AUC,in vivo [1],200 to 700 µM·h
same,AUC(0-inf),in vivo [1]; 30 mg/kg,252 ± 64 µM·h
same,Cmax,in vivo [1]; 30 mg/kg,32.8 ± 14.4 µM
same,half-life,in vivo [1]; 30 mg/kg,4.46 ± 0.16 h
same,hERG,hERG,>33 µM
same,MBC,[2],1.56 to 3.12 µM
same,solubility at 24 h,physchem,8 µM
same,AUC(0-t),"in vivo [3]; iv, 0.5 mg/kg",1.6 ± 0.29 µM·h
same,C0h,"in vivo [3]; iv, 0.5 mg/kg",1.76 ± 0.42 µM
same,Vd,"in vivo [3]; iv, 0.5 mg/kg",1.05 ± 0.28 L/kg
same,clearance,"in vivo [3]; iv, 0.5 mg/kg",15.5 ± 3.21 mL/min/kg
same,half-life,"in vivo [3]; iv, 0.5 mg/kg",2.22 ± 2.51 h
same,AUC(0-inf),"in vivo [3]; po, 30 mg/kg",101 µM·h
same,Cmax,"in vivo [3]; po, 30 mg/kg",15 µM
same,F,"in vivo [3]; po, 30 mg/kg",96%
same,Tmax,"in vivo [3]; po, 30 mg/kg",2 h
same,half-life,"in vivo [3]; po, 30 mg/kg",2.01 h
same,logD,[4],2.1
